Where a name gives a salt, the structure may show the parent alone.
Target: adenosine A2A receptor (Homo sapiens, UniProt P29274)
Assay: Adenosine A2A receptor agonist assay (method of Murphree et al.)
Type: binding
Details: method described by Murphree et al., Mol Pharmacol, Vol. 61, pp. 455-462 (2002)
Description: Compounds of formula (I) and their pharmaceutically acceptable salts are useful as pharmaceuticals. In particular, they activate the adenosine A2A receptor, i.e., they act as A2A receptor agonists.

Sequence of adenosine A2A receptor (P29274 whole entry): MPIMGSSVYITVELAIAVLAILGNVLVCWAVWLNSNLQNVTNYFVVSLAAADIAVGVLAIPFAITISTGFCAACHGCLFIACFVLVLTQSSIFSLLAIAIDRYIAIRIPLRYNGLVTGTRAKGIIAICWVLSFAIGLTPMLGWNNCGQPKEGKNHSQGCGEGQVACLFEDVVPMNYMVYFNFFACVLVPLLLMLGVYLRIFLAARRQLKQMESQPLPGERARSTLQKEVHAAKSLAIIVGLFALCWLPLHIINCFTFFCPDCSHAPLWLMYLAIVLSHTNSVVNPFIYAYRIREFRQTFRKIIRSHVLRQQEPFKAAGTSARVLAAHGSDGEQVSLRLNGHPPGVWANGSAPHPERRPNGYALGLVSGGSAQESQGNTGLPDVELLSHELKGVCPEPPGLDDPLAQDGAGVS

Structure (SMILES)	Ki [nM]
O=C(N[C@@H]1CCNC1)N[C@@H]1CCN(c2nc(NCC(c3ccccc3)c3ccccc3)c3ncn([C@@H]4O[C@H](CO)[C@@H](O)[C@H]4O)c3n2)C1 [Example 11, 1-{(R)-1-[9-(2R,3R,4S,5R)-3,4-Dihydroxy-5-hydroxymethyl-tetrahydro-furan-2-yl)-6-(2,2-diphenyl-ethylamino)-9H-purin-2-yl]-pyrrolidin-3-yl}-3-(R)-pyrrolidin-3-yl-urea trifluoroacetate]	12
CCn1nnc([C@H]2O[C@@H](n3cnc4c(NCC(c5ccc(O)cc5)c5ccc(O)cc5)nc(N5CC[C@@H](NC(=O)c6ccc(N7CCOCC7)nc6)C5)nc43)[C@H](O)[C@@H]2O)n1 [Example 77, N-((R)-1-{6-[2,2-bis-(4-Hydroxy-phenyl)-ethylamino]-9-[(2R,3R,4S,5R)-5-(2-ethyl-2H-tetrazol-5-yl)-3,4-dihydroxy-tetrahydro-furan-2-yl]-9H-purin-2-yl}-pyrrolidin-3-yl)-6-morpholin-4-yl-nicotinamide trifluoroacetate]	6
